The source of these data is ChEMBL document CHEMBL1158746, “Structures and aldose reductase inhibitory effects of bromophenols from the red alga Symphyocladia latiuscula” (J Nat Prod, 2005).

Structures are written as SMILES. pIC50: −log10 of the molar value.

The term pIC50 denotes the IC50 on a negative log10 scale, so that one unit is a factor of ten.

This experiment has as its target Aldo-keto reductase family 1 member B1 (Homo sapiens, UniProt P15121). Briefly: Inhibition of human muscle recombinant aldose reductase by spectrophotometry. On the set-up: species or system Muscle tissue.
`Cc1c(Br)c(O)c(O)c(Br)c1Br`: the pIC50 was 5.50.
With `O=Cc1c(Br)c(O)c(O)c(Br)c1Br`, the pIC50 was 6.18.
For `Oc1c(O)c(Br)c(Cc2c(Br)c(O)c(O)c(Br)c2Br)c(Br)c1Br`, the pIC50 is 6.25.
Then `Oc1cc(Br)c(COCc2c(Br)c(O)c(O)c(Br)c2Br)c(Br)c1O`, with 6.78; and `Oc1c(Br)cc(Cc2c(Br)c(O)c(O)c(Br)c2Br)c(Br)c1O`, with 6.20.
